Laboratory results: article PMC11228755 (RSC Advances, 2024)
Where “and” joins values, the source holds several entries; their conditions need not be identical. Equal entries are not always repeated. Marks after values point to notes of the source that are not given here.

What was measured:
[1] = tested on: Salmonella typhimurium TA102; conditions: positive control, 20 μg per plate, +S9
[2] = tested on: Salmonella typhimurium TA97a; assay: Ames test; conditions: positive control, 50 μg per plate, −S9
[3] = tested on: Salmonella typhimurium TA98; assay: Ames test; conditions: positive control, 50 μg per plate, −S9
[4] = tested on: Salmonella typhimurium TA1535; assay: Ames test; conditions: positive control, 1 μg per plate, −S9
[5] = tested on: Salmonella typhimurium TA100; assay: Ames test; conditions: positive control, 1 μg per plate, −S9

Compound: Nc1ccc2cc3ccccc3cc2c1 [2-Aminoanthracene, 2-aminoanthracene]
- Number of revertants TA102 [1]: 2121 ± 21 ^e

Compound: CN(C)c1ccc(N=NS(=O)(=O)[O-])cc1.[Na+] [Dioxone, dioxone]
- Number of revertants TA97a [2]: 1872 ± 104 ^a
- Number of revertants TA98 [3]: 1111 ± 117 ^a

Compound: [N-]=[N+]=[N-].[Na+] [Sodium azide, sodium azide]
- Number of revertants TA1535 [4]: 1190 ± 40 ^c and 1333 ± 53 ^c
- Number of revertants TA100 [5]: 1697 ± 54 ^c
